Measurements taken from US20030166213A1, “Methods for identifying compounds that modulate disorders related to nitric oxide/ cGMP-dependent protein kinase signaling” (priority 2000, published 2003).
“Also recorded” adds a separate entry of the source.

System: Drosophila melanogaster
Assay: Effects of methylphenidate on rest (sleep) in flies, Drosophila Activity Monitoring System
Assay type: in vivo
Details: wild-type Canton-S virgin female flies; 0.5 mg/ml methylphenidate dissolved in the food; transferred two hours before lights-off; rest over the following 14 hours vs baseline; p<0.05
Procedure: Wild-type Canton-S (CS) flies were placed into a 50 ml vial containing yeast, dark corn syrup and agar food. Each colony was housed at 25° C. with a relative humidity of 50% in a Forma Scientific incubator. The flies were maintained on a 12:12 light/dark cycle with “lights-on” commencing at 8:00 am and “lights-off” commencing at 8:00 pm to yield darkness. Virgin females were collected and maintained in 50 ml vials for one day. During the second day, flies were individually placed into glass tubes (65 mm in length, 5 mm I.D.) containing about lomm of fresh food and the tubes were placed into the Drosophila Activity Monitoring System (Trikinetics, Waltham, Mass.). The flies remained undisturbed for the following 48 hours. The amount and distribution of rest was evaluated during the third day to ensure that the flies had adapted to the apparatus as previously described in Shaw et. al., Science 287:1834-1837 (2000). On day 4, two hours before lights-off, flies were transferred to fresh glass tubes containing only standard laboratory food or to tubes with 0.5 mg/ml methylphenidate that had been dissolved in the food. The amount and distribution of rest during the following 14 hours was then evaluated.

With `COC(=O)C(c1ccccc1)C1CCCCN1` (stereo not shown) [methylphenidate] the “amount and distribution of rest” value was “rest was significantly reduced compared to baseline; also recorded: significant and substantial decrease in rest”.
